System: prostate cancer lesions
Assay: FDG PET imaging of prostate cancer patients (comparison)
Type: in vivo, human
From the text: These panels show CT scans (left column) and PET scans (right column). […] However, this is not observed in the Fludeoxyglucose (^18F) PET (lower right panel).
FIGS. 7-9 show CT and PET/CT scan taken from the same patient as from FIG. 6.

**Q.** Which results are given for OC[C@H]1OC(O)[C@H]([18F])[C@@H](O)[C@@H]1O (some centres unmarked) [Fludeoxyglucose (^18F)]?
**A.** PET uptake in bone metastasis, left iliac bone (patient with metastatic prostate cancer, FIG. 5): not observed; Uptake in skeletal lesions not clearly seen on bone scan (patient with prostate carcinoma, FIG. 6): non-FDG avid

Reference: US20180088120A1, “Elevated PSMA Identifies Lethal Prostate Cancers” (Cornell University, priority 2012, published 2018)
